From ChEMBL document CHEMBL3124761, “Synthesis and biological evaluation of N,N'-squaramides with high in vivo efficacy and low toxicity: toward a low-cost drug against Chagas disease” (J Med Chem, 2014)
Activity calls are given as the source filed them. The calls are words filed in the database; no cut-off is given here.

Columns and labels:
Mus musculus [1] = experiment: Toxicity in BALB/c albino mouse infected with blood trypomastigote stage of Trypanosoma cruzi assessed as increase in total bilirubin level in serum at 25 mg/kg, ip administered on day 7 to 12 post-infection measured after day 120 relative to control; type: organism-based; set-up: dose 25 mg/kg, route intraperitoneal; details: in vivo
Mus musculus [2] = experiment: Toxicity in BALB/c albino mouse infected with blood trypomastigote stage of Trypanosoma cruzi assessed as decrease in creatinephophokinase-MB level in serum at 25 mg/kg, ip administered on day 7 to 12 post-infection measured after day 120 relative to control; type: organism-based; set-up: dose 25 mg/kg, route intraperitoneal; scale not given: the % may be the effect or the level left; details: in vivo
Mus musculus [3] = experiment: Toxicity in BALB/c albino mouse infected with blood trypomastigote stage of Trypanosoma cruzi assessed as change in alkaline phosphatase level in serum at 25 mg/kg, ip administered on day 7 to 12 post-infection measured after day 120 relative to control; type: organism-based; set-up: dose 25 mg/kg, route intraperitoneal; details: in vivo
Mus musculus [4] = experiment: Toxicity in BALB/c albino mouse infected with blood trypomastigote stage of Trypanosoma cruzi assessed as change in LDH level in serum at 25 mg/kg, ip administered on day 7 to 12 post-infection measured after day 120 relative to control; type: organism-based; set-up: dose 25 mg/kg, route intraperitoneal; details: in vivo
Trypanosoma cruzi [5] = experiment: Trypanocidal activity against metacyclic trypomastigote stage of Trypanosoma cruzi infected in BALB/c albino mouse acute chagas disease model assessed as reduction of parasite burden at 25 mg/kg, ip administered on day 7 to 12 post-infection measured on day 14 by ELISA; type: functional, organism-based; set-up: dose 25 mg/kg
Trypanosoma cruzi [6] = experiment: (§1) Antitrypanosomal activity against amastigote stage of Trypanosoma cruzi IRHOD/CO/2008/SN3 infected in African green monkey Vero cells assessed as reduction of amastigote number per cell at IC25 preincubated for 12 hrs followed by compound washout measured every 48 hrs for 10 days by Neubauer hemocytometric chamber analysis relative to control; type: functional
Trypanosoma cruzi [7] = experiment: Antitrypanosomal activity against epimastigote stage of Trypanosoma cruzi IRHOD/CO/2008/SN3 assessed as change in excreted acetate level at IC25 after 96 hrs by 1H NMR analysis relative to control; type: functional
Trypanosoma cruzi [8] = experiment: Antitrypanosomal activity against epimastigote stage of Trypanosoma cruzi IRHOD/CO/2008/SN3 assessed as change in excreted pyruvate level at IC25 after 96 hrs by 1H NMR analysis relative to control; type: functional
Mus musculus [9] = experiment: Toxicity in BALB/c albino mouse assessed as mortality at 25 mg/kg, ip administered for 5 days; type: organism-based; set-up: dose 25 mg/kg, route intraperitoneal; details: in vivo, 120 h
Trypanosoma cruzi [10] = experiment: as §1, with “trypomastigote” for “amastigote”, “IRHOD/CO/2008/SN3” for “IRHOD/CO/2008/SN3 infected in African green monkey Vero cells”, “mililiter of culture medium” for “cell”; type: functional
Trypanosoma cruzi [11] = experiment: Trypanocidal activity against metacyclic trypomastigote stage of Trypanosoma cruzi infected in BALB/c albino mouse acute chagas disease model assessed as inhibition of parasitemia at 25 mg/kg, ip administered on day 7 to 12 post-infection measured every 2 days until day 40 […] relative to control; type: functional; details: route intraperitoneal
[12] = Selectivity index, ratio of IC50 for African green monkey Vero cells to IC50 for amastigote stage of Trypanosoma cruzi IRHOD/CO/2008/SN3 infected in African green monkey Vero cells; type: toxicity, cell-based; details: read-out: Ratio IC50
Trypanosoma cruzi [13] = experiment: Antitrypanosomal activity against epimastigote stage of Trypanosoma cruzi IRHOD/CO/2008/SN3 assessed as change in excreted alanine level at IC25 after 96 hrs by 1H NMR analysis relative to control; type: functional
Mus musculus [14] = experiment: Toxicity in BALB/c albino mouse infected with blood trypomastigote stage of Trypanosoma cruzi assessed as increase in AST/GOT level in serum at 25 mg/kg, ip administered on day 7 to 12 post-infection measured after day 120 relative to control; type: organism-based; set-up: dose 25 mg/kg, route intraperitoneal; details: in vivo
Trypanosoma cruzi [15] = experiment: Antitrypanosomal activity against epimastigote stage of Trypanosoma cruzi IRHOD/CO/2008/SN3 assessed as parasite growth inhibition after 72 hrs by Neubauer hemocytometric chamber analysis; type: functional, organism-based; details: IRHOD/CO/2008/SN3, 72 h
Trypanosoma cruzi [16] = experiment: as §1, with “decrease in infection rate” for “reduction of amastigote number per cell”; type: functional
Mus musculus [17] = experiment: Toxicity in BALB/c albino mouse infected with blood trypomastigote stage of Trypanosoma cruzi assessed as change in uric acid level in serum at 25 mg/kg, ip administered on day 7 to 12 post-infection measured after day 120 relative to control; type: organism-based; set-up: dose 25 mg/kg, route intraperitoneal; details: in vivo
Trypanosoma cruzi [18] = experiment: Antitrypanosomal activity against epimastigote stage of Trypanosoma cruzi IRHOD/CO/2008/SN3 assessed as change in excreted lactate level at IC25 after 96 hrs by 1H NMR analysis relative to control; type: functional
Mus musculus [19] = experiment: Toxicity in BALB/c albino mouse infected with blood trypomastigote stage of Trypanosoma cruzi assessed as decrease in ALT/GPT level in serum at 25 mg/kg, ip administered on day 7 to 12 post-infection measured after day 120 relative to control; type: organism-based; set-up: dose 25 mg/kg, route intraperitoneal; scale not given: the % may be the effect or the level left; details: in vivo
Mus musculus [20] = experiment: Toxicity in BALB/c albino mouse infected with blood trypomastigote stage of Trypanosoma cruzi assessed as change in urea level in serum at 25 mg/kg, ip administered on day 7 to 12 post-infection measured after day 120 relative to control; type: organism-based; set-up: dose 25 mg/kg, route intraperitoneal; details: in vivo
Trypanosoma cruzi [21] = experiment: Antitrypanosomal activity against amastigote stage of Trypanosoma cruzi IRHOD/CO/2008/SN3 infected in African green monkey Vero cells assessed as parasite growth inhibition after 72 hrs by Giemsa staining-based microscopic analysis; type: functional, organism-based; details: IRHOD/CO/2008/SN3, Vero
Vero = experiment: Cytotoxicity against African green monkey Vero cells assessed as cell viability after 72 hrs by propidium iodide/fluorescein diacetate staining-based flow cytometric analysis; details: Chlorocebus sabaeus
[22] = Selectivity index, ratio of IC50 for African green monkey Vero cells to IC50 for epimastigote stage of Trypanosoma cruzi IRHOD/CO/2008/SN3; type: toxicity, cell-based; details: read-out: Ratio IC50
Trypanosoma cruzi [23] = experiment: Antitrypanosomal activity against epimastigote stage of Trypanosoma cruzi IRHOD/CO/2008/SN3 assessed as change in excreted succinate level at IC25 after 96 hrs by 1H NMR analysis relative to control; type: functional

Compound: CCCCNc1c(NCCCN(CCCC)CCCC)c(=O)c1=O
- Activity (Mus musculus [1]): 30%
- Activity (Mus musculus [2]): 30%
- Activity (Mus musculus [3]): < 10%
- Activity (Mus musculus [4]): < 10%
- Activity (Trypanosoma cruzi [5]): Active
- inhibition (INH) (Trypanosoma cruzi [6]): 45%
- Activity (Trypanosoma cruzi [7]): 8.5%
- Activity (Trypanosoma cruzi [8]): -12%
- Activity (Mus musculus [9]): Non-toxic
- inhibition (INH) (Trypanosoma cruzi [10]): 38%
- inhibition in vivo at 25 mg/kg (Trypanosoma cruzi [11]): 21%
- selectivity ratio [12]: 24.6
- Activity (Trypanosoma cruzi [13]): -7.9%
- Activity (Mus musculus [14]): 40%
- IC50 (Trypanosoma cruzi [15]): 21.1 µM
- inhibition (INH) (Trypanosoma cruzi [16]): 61%
- Activity (Mus musculus [17]): < 10%
- Activity (Trypanosoma cruzi [18]): -22.3%
- Activity (Mus musculus [19]): 10%
- Activity (Mus musculus [20]): < 10%
- IC50 (Trypanosoma cruzi [21]): 6 µM
- IC50 (Vero): 148 µM
- selectivity ratio [22]: 13.3
- Activity (Trypanosoma cruzi [23]): -21.6%
